Molecules are shown by their SMILES.

Broadly, the IC50 is the midpoint of a concentration-inhibition curve. Low values mean greater potency, high ones weaker potency.

The subject of this assay is TNF-α. Briefly: TNF-α inhibition in LPS-activated THP-1 cells (Human TNF-α ELISA of supernatants). Format: cell-based. The conditions noted are these: PMA-differentiated THP-1 cells activated with 50 ng/mL LPS, 4 h, mean ± SEM of triplicate. As to the method:
THP-1 cells (Human monocytic leukemia cells) were obtained from Biobank facility, ICCBS, University of Karachi, which was purchased from the ECACC (European Collection of Cell Cultures, UK). The cells were cultured in RPMI-1640, supplemented with 10% FBS (fetal bovine serum), 50 µmol/L mercaptoethanol (Merck, Damstadt, Germany), 5.5 mmol/L glucose (BioM Laboratories, Chemical Division, Malaysia), 2 mmol/L; L-glutamine (PAA Laboratories, GmbH, Pasching, Austria), 10 mmol/L HEPES (MP Biomedicals, lLLKIRCH, France) and 1 mmol/L sodium pyruvate (GIBCO, Grand Island, NY, USA). Cells were harvested and 2 × 10^5 cells/mL were then added to 24-well tissue culture plates. Differentiation of cells was performed by adding 20 ng/mL of phorbol myristate acetate (PMA) (SERVA, Heidelberg, Germany), and by incubation at 37 °C for 24 h in 5% CO2. […] The supernatants were analyzed for the level of TNF-α using Human TNF-α ELISA Kit (R&D Systems, Minneapolis, USA).
Briefly the working concentration of 4 μg/mL in PBS from 720 μg/mL of mouse anti-human TNF-α capture antibodies were used for coating of 96 well ELISA plate. […] The reaction was stopped by adding 50 μL of stop solution (2 N H2SO4) and plate was then read at wavelength of 450 nm in ELISA reader (ELX800 NB, DIA LAB, Wr. Neudrof, Austria).
A general note: In an ELISA, binding on a coated surface is turned into a signal by an enzyme label.

With `CC(=O)CCCCn1c(=O)c2c(ncn2C)n(C)c1=O` [Pentoxifylline], the IC50 worked out at 341 ± 7.54 µM.

Source of the values: publication PMC7708426, “Identification of potential TNF-α inhibitors: from in silico to in vitro studies” (Scientific Reports, 2020).
